Reference: patent publication US20250034186A1, “ANTIVIRAL COMPOUNDS” (priority 2020, published 2025)
Like-named read-outs stand apart in the source and are kept apart here.

Key:
[1] = NRVM neonatal rat cardiomyocyte cytotoxicity assay; type: cell-based; conditions: freshly harvested neonatal cardiomyocytes (NRVM)
Procedure: Compounds were tested in a high-throughput 384-well assay format for cytotoxicity against freshly harvested neonatal rat cardiomyocytes (NRVM). Cells were diluted in media (DMEM+10% FBS+1% PSG+1% NEAA) to 25,000 cells/mL, plated at 90 ul per well in 384 well cell assay plates and incubated overnight at 37° C. and 5% CO2 before compound addition. Compounds were prepared by serial dilution (1:3) in 100% DMSO in 384-well plates in quadruplicate. 400 nL/well of compound were transferred into cell assay plates via Biocel (Agilent Technologies). DMSO and 2 mM Puromycin were included as negative and positive controls respectively. After 5 days, plates are washed 1× w/ 100 ul/well PBS with Biotek plate washer, and 20 μL of Cell Titer Glo was added to each well. Plates were incubated 10 min and read on EnVision reader (Perkin Elmer). […] CC50 values were calculated in Accord (on-line tool) using a one-site dose-response model to generate sigmoidal curve fits.

[2] = in vitro; type: in vitro ADME; conditions: plasma, 37° C., up to 4 h
Procedure: For plasma stability, the compounds were incubated at 2 μM in cynomolgus monkey or human plasma for up to 4 h at 37° C. At desired time points, an aliquot from the incubation was quenched by addition of 9 volumes of 100% acetonitrile supplemented with internal standard. Following the last collection, samples were centrifuged at 3000 g for 30 min and supernatants were transferred to a new plate containing an equal volume of water for analysis by liquid chromatography coupled to triple quadrupole mass spectrometry (LC-MS/MS). Data (analyte to internal standard peak area ratio) were plotted on a semi log scale and fitted using an exponential fit. The half-life (T1/2) was determined assuming first order kinetics.

[3] = MT-4 cytotoxicity assay; type: cell-based; conditions: human, MT-4 cells (uninfected), 4-5 days, read-out: CC50 MT4
Procedure: Cytotoxicity of the compound of Formula I and compounds 1, 2, and 6 was determined in uninfected cells using the cell viability reagent in a similar fashion as described before for other cell types (Cihlar et al., Antimicrob Agents Chemother. 2008, 52(2):655-65.). HEp-2 (1.5×10^3 cells/well) and MT-4 (2×10^3 cells/well) cells were plated in 384-well plates and incubated with the appropriate medium containing 3-fold serially diluted compound ranging from 15 nM to 100,000 nM. Cells were cultured for 4-5 days at 37° C. Following the incubation, the cells were allowed to equilibrate to 25° C., and cell viability was determined by adding Cell-Titer Glo viability reagent. The mixture was incubated for 10 min, and the luminescence signal was quantified using an Envision plate reader. Untreated cell and cells treated at 2 μM puromycin (Sigma, St. Louis, MO) serve as 100% and 0% cell viability control, respectively.

[4] = test system: RSV A2; experiment: RSV NHBE EC50, RSV A2 antiviral assay; type: cell-based; conditions: for EC50: human respiratory syncytial virus, 96 h, RSV A2 in NHBE cells, 4 days
Procedure: Normal human bronchial epithelial (NHBE) cells were purchased from Lonza (Walkersville, MD, Cat #CC-2540) and cultured in Bronchial Epithelial Growth Media (BEGM) (Lonza, Walkersville, MD, Cat #CC-3170). The cells were passaged 1-2 times per week to maintain <80% confluency. The NHBE cells were discarded after 6 passages in culture.
To conduct the RSV A2 antiviral assay, NHBE cells were plated in 96-well plates at a density of 7,500 cells per well in BEGM and allowed to attach overnight at 37° C. Following attachment, 100 μL of cell culture media was removed and 3-fold serially diluted compound was added using a Hewlett-Packard D300 Digital Dispenser. The final concentration of DMSO was normalized to 0.05%. Following compound addition, the NHBE cells were infected by the addition of 100 μL of RSV A2 at a titer of 1×10^4.5 tissue culture infectious doses/mL in BEGM and then incubated at 37° C. for 4 days. The NHBE cells were then allowed to equilibrate to 25° C. and cell viability was determined by removing 100 μL of culture medium and adding 100 μL of Cell-Titer Glo viability reagent. The mixtures were incubated for 10 minutes at 25° C., and the luminescence signal was quantified on an Envision luminescence plate reader.

[5] = test system: HRV1a; experiment: HRV1A HeLa EC50; type: cell-based, human rhinovirus; conditions: for EC50: Human rhinovirus sp., HRV1A, HeLa, 96 h, read-out: HRV1A HeLa EC50
Procedure: H1-HeLa cells, cultured in complete RPMI 1640 medium containing 10% heat-inactivated FBS and 1% Penicillin/Streptomycin, were seeded in 96 well plates at 5000 cells/well one day prior to compound dosing and infection. The antiviral activity of each compound was measured in triplicate. Compounds were added directly to the cell cultures in serial 3-fold dilutions using the HP300 digital dispenser (Hewlett Packard, Palo Alto, CA) immediately prior to infection. The plates were transferred to BSL-2 containment and 100 μL of 1/4000 dilution of HRV1a virus stock was added to each well containing cells and serially diluted compounds. Each plate included 6 wells of infected untreated cells and 6 wells of cells containing 5 μM Rupintrivir that served as 0% and 100% virus inhibition control, respectively. Following the infection, test plates were incubated for 96 h in a tissue culture incubator set to 37° C./5% CO2. Following incubation, the H1-HeLa cells were removed from incubation and allowed to equilibrate to 25° C. Cell viability was determined by removing 100 μL of culture medium and adding 100 μL of Cell-Titer Glo viability reagent. The mixtures were incubated on a shaker for 10 minutes at 25° C., and the luminescence signal was quantified on an Envision luminescence plate reader.

[6] = PBMC cytotoxicity assay; type: cell-based; conditions: human, cryopreserved PBMCs
Procedure: Compounds were tested in a high-throughput 384-well assay format for cytotoxicity in cryopreserved human PBMCs. Compounds were serially diluted (1:3) in 100% DMSO in 384-well plates in quadruplicate. An acoustic dispenser was used to transfer 310 nL of compound into assay plates. DMSO and 2 mM Puromycin were included as negative and positive controls respectively. Cells were diluted in media (RPMI+10% FBS+1% PSG+10 mM Hepes+1% Pyruvate+0.1% BMe) to 72K cells/mL and allowed to rest for 4 hours in an incubator at 37° C. and 5% CO2 before plating into prespotted assay plates at 70 uL/well. After 5 days, 25 μL of Cell Titer Glo was added to the assay plates. […] CC50 values were calculated in Accord (on-line tool) using a one-site dose-response model to generate sigmoidal curve fits.

[7] = cynomolgus monkey, read-out: Cyno Plasma t1/2
[8] = human, read-out: Hum Plasma t1/2

SMILES | CC50 at 5 days [1] | half-life at 2 μM [2, 7] | half-life at 2 μM [2, 8] | CC50 [3] | EC50 [4] | EC50 [5] | CC50 at 5 days [6] | more potent than the compound of Formula Ib, RSV NHBE ([4]; EC50 ratio vs Formula Ib) | more potent relative to compound 1, RSV NHBE ([4]; EC50 ratio vs compound 1) | times more potent relative to compound 3, RSV NHBE ([4]; EC50 ratio vs compound 3) | times more potent relative to compound 4, RSV NHBE ([4]; EC50 ratio vs compound 4) | times more potent relative to compound 5, RSV NHBE ([4]; EC50 ratio vs compound 5) | times more potent relative to compound 1, HRV1A HeLa ([5]; EC50 ratio vs compound 1) | times more potent compared to compound 2, HRV1A HeLa ([5]; EC50 ratio vs compound 2) | times more potent relative to compound 3, HRV1A HeLa ([5]; EC50 ratio vs compound 3) | times more potent relative to compound 5, HRV1A HeLa ([5]; EC50 ratio vs compound 5) | times as potent as compound 7, RSV NHBE ([4]; EC50 ratio vs compound 7)
CCC(CC)COC(=O)[C@H](C)NP(=O)(OC[C@@]1(C#N)O[C@@H](c2ccc3c(N)ncnn23)[C@H](O)[C@@H]1O)Oc1ccccc1 (stereo partly drawn) [Compound 2, reference compound] | > 44.4 µM | 4.82 h | 2.53 h | > 43.7 µM | 0.075 µM | 0.097 µM | 4.65 µM | – | – | – | – | – | – | – | – | – | –
C[C@H](N[P@](=O)(OC[C@@]1(C#N)O[C@@H](c2ccc3c(N)ncnn23)[C@H](O)[C@@H]1O)Oc1ccccc1)C(=O)OC1CCCCC1 [Formula I, cyclohexyl ((S)-(((2R,3S,4R,5S)-5-(4-aminopyrrolo[2,1-f][1,2,4]triazin-7-yl)-2-cyano-3,4-dihydroxytetrahydrofuran-2-yl)methoxy)(phenoxy)phosphoryl)-L-alaninate] | 27.7 µM | 7.4 h | 8.05 h | 56.2 µM | 0.124 µM | 0.008 µM | > 31.6 µM | 5.1 | ~4.4 | about 9.3 times | about 7.1 times | about 10.0 times | ~51.1 times | about 12.1 times | about 91.9 times | about 203.1 times | –
CCOC(=O)[C@H](C)NP(=O)(OC[C@@]1(C#N)O[C@@H](c2ccc3c(N)ncnn23)[C@H](O)[C@@H]1O)Oc1ccccc1 (stereo partly drawn) [Compound 1, reference compound] | > 44.4 µM | – | 11.1 h | 52.4 µM | 0.549 µM | 0.409 µM | 18.2 µM | – | – | – | – | – | – | – | – | – | –
CCC(CC)COC(=O)[C@H](C)N[P@](=O)(OC[C@@]1(C#N)O[C@@H](c2ccc3c(N)ncnn23)[C@H](O)[C@@H]1O)Oc1ccccc1 [Compound 6, 2-ethylbutyl ((S)-(((2R,3S,4R,5S)-5-(4-aminopyrrolo[2,1-f][1,2,4]triazin-7-yl)-2-cyano-3,4-dihydroxytetrahydrofuran-2-yl)methoxy)(phenoxy)phosphoryl)alaninate] | 8.09 µM | 4.28 h | 2.18 h | 38.8 µM | 0.127 µM | – | 4.79 µM | – | – | – | – | – | – | – | – | – | 0.7 times
